# Experiments:
# Type in all cases: functional
# [1] = test system: Stenotrophomonas maltophilia; assay: Antibacterial activity against Stenotrophomonas maltophilia MBS109 containing chromosomally encoded Smqnr gene by epsilon test
# [2] = test system: Stenotrophomonas maltophilia; assay: Antibacterial activity against Stenotrophomonas maltophilia MBS101 containing plasmid encoded Smqnr gene by epsilon test
# [3] = test system: Stenotrophomonas maltophilia; assay: Antibacterial activity against Stenotrophomonas maltophilia D457 containing chromosomally encoded Smqnr gene by epsilon test
# [4] = test system: Stenotrophomonas maltophilia; assay: Antibacterial activity against Stenotrophomonas maltophilia MBS108 containing both chromosomally and plasmid encoded Smqnr gene by epsilon test
# [5] = test system: Stenotrophomonas maltophilia; assay: Antibacterial activity against Stenotrophomonas maltophilia MBS82 deficient in Smqnr gene by epsilon test
# [6] = test system: Stenotrophomonas maltophilia; assay: Antibacterial activity against Stenotrophomonas maltophilia MBS100 deficient in Smqnr gene by epsilon test
SMILES,MIC [1] [µg/mL],MIC [2] [µg/mL],MIC [3] [µg/mL],MIC [4] [µg/mL],MIC [5] [µg/mL],MIC [6] [µg/mL]
O=C(O)c1cn(C2CC2)c2cc(N3CCNCC3)c(F)cc2c1=O [CIPROFLOXACIN],0.75,2,0.75,2,,
COc1c(N2CCNC(C)C2)c(F)cc2c(=O)c(C(=O)O)cn(C3CC3)c12 (stereo not drawn) [GATIFLOXACIN],0.25,0.75,0.25,0.75,0.125,0.125
C[C@H]1COc2c(N3CCN(C)CC3)c(F)cc3c(=O)c(C(=O)O)cn1c23.C[C@H]1COc2c(N3CCN(C)CC3)c(F)cc3c(=O)c(C(=O)O)cn1c23.O [LEVOFLOXACIN],0.5,1,0.5,1,0.25,0.25
COc1c(N2C[C@@H]3CCCN[C@@H]3C2)c(F)cc2c(=O)c(C(=O)O)cn(C3CC3)c12 [MOXIFLOXACIN],0.19,0.75,0.19,0.75,0.064,0.064
CC1COc2c(N3CCN(C)CC3)c(F)cc3c(=O)c(C(=O)O)cn1c23 (stereo not drawn) [OFLOXACIN],1,3,1,3,0.5,0.5

# From ChEMBL document CHEMBL1212754, “SmQnr contributes to intrinsic resistance to quinolones in Stenotrophomonas maltophilia” (2010)
